Source: the supplement of paper PMC13380429

How the values were obtained:
Settings in all cases: 72 h
U2OS [1] = assay: drug sensitivity score (DSS) for viability; higher = more toxic; extreme values may be limits of the assay
Vero E6 [2] = assay: as above
Caco-2 [3] = assay: as above
Calu-3 [4] = assay: as above
HepG2 [5] = assay: as above
U2OS [6] = assay: cell viability relative to DMSO; higher = less toxic
Vero E6 [7] = assay: as above
Caco-2 [8] = assay: as above
Calu-3 [9] = assay: as above
HepG2 [10] = assay: as above
U2OS [11] = assay: relative viability EC50 (midpoint between 100% and the lowest measured viability); higher = less toxic
Vero E6 [12] = assay: as above
Caco-2 [13] = assay: as above
Calu-3 [14] = assay: as above
HepG2 [15] = assay: as above

CCCCCCCCCCC(CO)CCCCCCCC (stereo not given) [2-octyldodecan-1-ol]
drug sensitivity score (U2OS [1]): 0
drug sensitivity score (Vero E6 [2]): 0
drug sensitivity score (Caco-2 [3]): 0
drug sensitivity score (Calu-3 [4]): 0
drug sensitivity score (HepG2 [5]): 0
cell viability (U2OS [6]; 1 nM): 96.6%
cell viability (U2OS [6]; 10 nM): 98%
cell viability (U2OS [6]; 100 nM): 97.3%
cell viability (U2OS [6]; 1000 nM): 101%
cell viability (U2OS [6]; 10000 nM): 95.9%
cell viability (Vero E6 [7]; 1 nM): 98.4%
cell viability (Vero E6 [7]; 10 nM): 97.3%
cell viability (Vero E6 [7]; 100 nM): 97.4%
cell viability (Vero E6 [7]; 1000 nM): 93.5%
cell viability (Vero E6 [7]; 10000 nM): 99.7%
cell viability (Caco-2 [8]; 1 nM): 96.1%
cell viability (Caco-2 [8]; 10 nM): 103%
cell viability (Caco-2 [8]; 100 nM): 98.9%
cell viability (Caco-2 [8]; 1000 nM): 93.1%
cell viability (Caco-2 [8]; 10000 nM): 98.2%
cell viability (Calu-3 [9]; 1 nM): 98.5%
cell viability (Calu-3 [9]; 10 nM): 88.2%
cell viability (Calu-3 [9]; 100 nM): 98.2%
cell viability (Calu-3 [9]; 1000 nM): 100%
cell viability (Calu-3 [9]; 10000 nM): 102%
cell viability (HepG2 [10]; 1 nM): 96.8%
cell viability (HepG2 [10]; 10 nM): 95.8%
cell viability (HepG2 [10]; 100 nM): 102%
cell viability (HepG2 [10]; 1000 nM): 102%
cell viability (HepG2 [10]; 10000 nM): 98.3%
relative viability EC50 (U2OS [11]): > 10 µM
relative viability EC50 (Vero E6 [12]): > 10 µM
relative viability EC50 (Caco-2 [13]): > 10 µM
relative viability EC50 (Calu-3 [14]): > 10 µM
relative viability EC50 (HepG2 [15]): > 10 µM

OCCCNc1ccccc1 [3-anilinopropan-1-ol]
drug sensitivity score (U2OS [1]): 0
drug sensitivity score (Vero E6 [2]): 0
drug sensitivity score (Caco-2 [3]): 0
drug sensitivity score (Calu-3 [4]): 0
drug sensitivity score (HepG2 [5]): 0
cell viability (U2OS [6]; 1 nM): 99.6%
cell viability (U2OS [6]; 10 nM): 106%
cell viability (U2OS [6]; 100 nM): 97.8%
cell viability (U2OS [6]; 1000 nM): 102%
cell viability (U2OS [6]; 10000 nM): 98.7%
cell viability (Vero E6 [7]; 1 nM): 100%
cell viability (Vero E6 [7]; 10 nM): 96.1%
cell viability (Vero E6 [7]; 100 nM): 107%
cell viability (Vero E6 [7]; 1000 nM): 94.4%
cell viability (Vero E6 [7]; 10000 nM): 97.9%
cell viability (Caco-2 [8]; 1 nM): 101%
cell viability (Caco-2 [8]; 10 nM): 91.8%
cell viability (Caco-2 [8]; 100 nM): 93.7%
cell viability (Caco-2 [8]; 1000 nM): 93.3%
cell viability (Caco-2 [8]; 10000 nM): 95.3%
cell viability (Calu-3 [9]; 1 nM): 106%
cell viability (Calu-3 [9]; 10 nM): 104%
cell viability (Calu-3 [9]; 100 nM): 99.6%
cell viability (Calu-3 [9]; 1000 nM): 97%
cell viability (Calu-3 [9]; 10000 nM): 115%
cell viability (HepG2 [10]; 1 nM): 103%
cell viability (HepG2 [10]; 10 nM): 101%
cell viability (HepG2 [10]; 100 nM): 95.6%
cell viability (HepG2 [10]; 1000 nM): 103%
cell viability (HepG2 [10]; 10000 nM): 94.9%
relative viability EC50 (U2OS [11]): > 10 µM
relative viability EC50 (Vero E6 [12]): > 10 µM
relative viability EC50 (Caco-2 [13]): > 10 µM
relative viability EC50 (Calu-3 [14]): > 10 µM
relative viability EC50 (HepG2 [15]): > 10 µM

O=C(O)CCCc1c[nH]c2ccccc12 [3-indolebutyric-acid]
drug sensitivity score (U2OS [1]): 0
drug sensitivity score (Vero E6 [2]): 0
drug sensitivity score (Caco-2 [3]): 1.2
drug sensitivity score (Calu-3 [4]): 0
drug sensitivity score (HepG2 [5]): 0
cell viability (U2OS [6]; 1 nM): 102%
cell viability (U2OS [6]; 10 nM): 102%
cell viability (U2OS [6]; 100 nM): 101%
cell viability (U2OS [6]; 1000 nM): 95%
cell viability (U2OS [6]; 10000 nM): 99.9%
cell viability (Vero E6 [7]; 1 nM): 102%
cell viability (Vero E6 [7]; 10 nM): 101%
cell viability (Vero E6 [7]; 100 nM): 101%
cell viability (Vero E6 [7]; 1000 nM): 97.2%
cell viability (Vero E6 [7]; 10000 nM): 94.2%
cell viability (Caco-2 [8]; 1 nM): 99.4%
cell viability (Caco-2 [8]; 10 nM): 88.5%
cell viability (Caco-2 [8]; 100 nM): 89.6%
cell viability (Caco-2 [8]; 1000 nM): 92.5%
cell viability (Caco-2 [8]; 10000 nM): 91.7%
cell viability (Calu-3 [9]; 1 nM): 99.6%
cell viability (Calu-3 [9]; 10 nM): 100%
cell viability (Calu-3 [9]; 100 nM): 97.7%
cell viability (Calu-3 [9]; 1000 nM): 100%
cell viability (Calu-3 [9]; 10000 nM): 99.3%
cell viability (HepG2 [10]; 1 nM): 98.3%
cell viability (HepG2 [10]; 10 nM): 99.4%
cell viability (HepG2 [10]; 100 nM): 92.8%
cell viability (HepG2 [10]; 1000 nM): 87.9%
cell viability (HepG2 [10]; 10000 nM): 101%
relative viability EC50 (U2OS [11]): > 10 µM
relative viability EC50 (Vero E6 [12]): > 10 µM
relative viability EC50 (Caco-2 [13]): > 10 µM
relative viability EC50 (Calu-3 [14]): > 10 µM
relative viability EC50 (HepG2 [15]): > 10 µM

CC(=O)N1CC[N+](C)(C)CC1 [4-acetyl-1,1-dimethylpiperazinium]
drug sensitivity score (U2OS [1]): 0
drug sensitivity score (Vero E6 [2]): 0
drug sensitivity score (Caco-2 [3]): 0
drug sensitivity score (Calu-3 [4]): 0
drug sensitivity score (HepG2 [5]): 0
cell viability (U2OS [6]; 1 nM): 101%
cell viability (U2OS [6]; 10 nM): 100%
cell viability (U2OS [6]; 100 nM): 97.5%
cell viability (U2OS [6]; 1000 nM): 102%
cell viability (U2OS [6]; 10000 nM): 95%
cell viability (Vero E6 [7]; 1 nM): 100%
cell viability (Vero E6 [7]; 10 nM): 111%
cell viability (Vero E6 [7]; 100 nM): 106%
cell viability (Vero E6 [7]; 1000 nM): 96.8%
cell viability (Vero E6 [7]; 10000 nM): 101%
cell viability (Caco-2 [8]; 1 nM): 100%
cell viability (Caco-2 [8]; 10 nM): 100%
cell viability (Caco-2 [8]; 100 nM): 98.7%
cell viability (Caco-2 [8]; 1000 nM): 98.2%
cell viability (Caco-2 [8]; 10000 nM): 97.9%
cell viability (Calu-3 [9]; 1 nM): 102%
cell viability (Calu-3 [9]; 10 nM): 101%
cell viability (Calu-3 [9]; 100 nM): 97%
cell viability (Calu-3 [9]; 1000 nM): 102%
cell viability (Calu-3 [9]; 10000 nM): 88.6%
cell viability (HepG2 [10]; 1 nM): 93.6%
cell viability (HepG2 [10]; 10 nM): 109%
cell viability (HepG2 [10]; 100 nM): 111%
cell viability (HepG2 [10]; 1000 nM): 97.9%
cell viability (HepG2 [10]; 10000 nM): 91.2%
relative viability EC50 (U2OS [11]): > 10 µM
relative viability EC50 (Vero E6 [12]): > 10 µM
relative viability EC50 (Caco-2 [13]): > 10 µM
relative viability EC50 (Calu-3 [14]): > 10 µM
relative viability EC50 (HepG2 [15]): > 10 µM
